Earlier results as cited in patent US20250283018A1, “TOILET RIM BLOCKS WITH SCENT CHANGE” (SYMRISE AG, priority 2021, published 2025).
Like-named read-outs stand apart in the source and are kept apart here.

How the values were obtained:
[1] = not given; remark: listed apart in the source
[2] = Table 3, components of POWER PLATIN

Molecule	Bp. [° C.] ([1]; Table 1, components of MARINA) [°C]	Bp. [° C.] [1, 2] [°C]	Bp. [° C.] ([1]; Table 2, components of PEACH) [°C]	also measured
CC1CC(C)(c2ccccc2)OC(C)O1 (centres unmarked) [FLOROPAL]	273	–	–	logP (Table 1, components of MARINA): 3.11
CC12CCC(CC1)C(C)(C)O2 [EUCALYPTOL NAT.]	176	–	–	–
CCCCCCCCCCCCCC=O [TETRADECANAL]	–	–	–	logP (list of selected fragrances): 2.89; Bp. [° C.] ([1]; list of selected fragrances): 286 °C
MENTHON L/ISOMENTHON D	204	–	–	logP (Table 1, components of MARINA): 2.87
BORNEOL L/ISOBORNEOL 65/35	–	212	–	–
CCOC(=O)CC(O)(CC(=O)OCC)C(=O)OCC	–	–	294	–
CC/C=C(\C)C(O)CCCCC (centres unmarked) [UNDECAVERTOL]	235	–	–	logP (Table 1, components of MARINA): 4.05
CCCC(=O)OCCC(C)C [ISOAMYLBUTYRAT]	–	–	179	logP (Table 2, components of PEACH): 3.25
CC(C)=CCCC(C)=CCCc1ccncc1	307	–	–	logP (Table 1, components of MARINA): 5.95
CCCCCCCCC1CCC(=O)O1 (centres unmarked) [DODECALACTON GAMMA]	–	–	291	logP (Table 2, components of PEACH): 3.55
CC(=O)OC1CCCCC1C(C)(C)C (centres unmarked) [AGRUMEX LC]	227	227	227	–
CCCCCCCCCCC=CC#N [OZONIL]	293	–	–	logP (Table 1, components of MARINA): 5.04
CC(=O)OC1CC2CC1C1CC=CC21 (centres unmarked) [VERDYL ACETATE]	–	–	–	logP (list of selected fragrances): 2.36; Bp. [° C.] ([1]; list of selected fragrances): 260 °C
CCCCCC(C)=O [HEPTANON-2]	–	–	150	logP (Table 2, components of PEACH): 1.73
CCCCCCCCCC=O [ALDEHYD C10]	208.5	208.5	208.5	logP (Table 1, components of MARINA): 3.76; logP (Table 2, components of PEACH): 3.76; logP [2]: 3.76
C/C=C/C(=O)C1C(C)C=CCC1(C)C (centres unmarked) [DELTA DEMASCONE]	–	251	251	logP (Table 2, components of PEACH): 4.16; logP [2]: 4.16; Bp. [° C.] ([1]; list of selected fragrances): 251 °C
CC(C)C1CC=C(CCC=O)CC1 (centres unmarked) [3-[4-ISOPROPYLCYCLOHEXEN-1-YL]PROPANAL]	–	–	–	logP (list of selected fragrances): 4.8; Bp. [° C.] ([1]; list of selected fragrances): 258 °C
CC1=CCC(=C(C)C)CC1 [TERPINOLEN DEXTRO]	–	197	–	logP [2]: 4.88
NEROL 900	–	228	–	logP [2]: 3.47
CSC	–	–	37	–
CCc1ccc(CC(C)(C)C=O)cc1 [FLORALOZONE]	–	276.6	–	logP [2]: 3.94
CC(=O)O[C@@H]1C[C@H]2CC[C@]1(C)C2(C)C (racemic) [ISOBORNYLACETAT]	224	–	–	logP (Table 1, components of MARINA): 3.86
CC1=CC(C)C(C=O)CC1 (centres unmarked) [VERTOCITRAL]	187	–	–	–
CCCCCC(=O)OCC [ETHYLCAPRONAT]	–	–	166	–

Molecule	Bp. [° C.] ([1]; Table 1, components of MARINA) [°C]	Bp. [° C.] [1, 2] [°C]	Bp. [° C.] ([1]; Table 2, components of PEACH) [°C]	also measured
COc1ccc(C=O)cc1 [ANISALDEHYD REIN]	–	248	–	–
Cc1ccc2c(c1)OC(=O)C2C (centres unmarked) [FURAMINTON/TONKALACTONE ™]	–	–	284	logP (Table 2, components of PEACH): 1.44
C/C=C/c1ccc(OC)cc1 [ANETHOL SUPRA 21.5 CELSIUS]	–	234	–	–
SPIRO[1,3-DIOXOLANE-2,5′-(4′,4′,8′,8′-TETRAMETHYL-HEXAHYDRO-3′,9′-MENTHANONAPHTHALENE)]	–	–	–	logP (list of selected fragrances): 5.16; Bp. [° C.] ([1]; list of selected fragrances): 280 °C
CCCCC(=CCC#N)CC	–	–	–	logP (list of selected fragrances): 3.98; Bp. [° C.] ([1]; list of selected fragrances): 230 °C
CCCCCCOC(=O)c1ccccc1O [HEXYLSALICYLAT, hexyl salicylate]	327	–	–	logP (Table 1, components of MARINA): 5.06; logP (list of selected fragrances): 4.98; Bp. [° C.] ([1]; list of selected fragrances): 327 °C
CC(C)CCCC(C)CCO (centres unmarked) [TETRAHYDROGERANIOL]	212	212	–	logP (Table 1, components of MARINA): 3.64; logP [2]: 3.64
CCCCCCC1OC(=O)CC1C (centres unmarked) [3-METHYL-GAMMA-DECALACTONE]	–	–	–	Bp. [° C.] ([1]; list of selected fragrances): 293 °C
C[C@@H]1CC[C@H]2C(C)(C)[C@H]3C[C@@]12CC[C@@]3(C)O [CEDROL CRIST. NAT.]	283	283	–	–
CC(C=O)Cc1ccc(C(C)C)cc1 (centres unmarked)	–	262	–	logP [2]: 3.91; logP (list of selected fragrances): 3.61; Bp. [° C.] ([1]; list of selected fragrances): 262 °C
CC12CCC(C1)C(C)(C)C2O (centres unmarked) [FENCHOL]	212	–	–	–
CC/C=C\CCOC(=O)OC [LEAFOVERT ®]	–	–	189	–
CO[C@]1(C)CC[C@@]23C[C@@H]1C(C)(C)[C@@H]2CC[C@H]3C [CEDROL METHYL ETHER]	–	–	–	Bp. [° C.] ([1]; list of selected fragrances): 270 °C
CCCCCCCC=O [ALDEHYD C 8]	171	–	171	logP (Table 1, components of MARINA): 2.78; logP (Table 2, components of PEACH): 2.78
CCCCC1CCC(=O)O1 (centres unmarked) [OCTALACTON GAMMA]	–	–	234	–
CCCCCCOC(C)=O [HEXYLACETAT]	169	–	169	–
C=CC(C)(O)CCC=C(C)C (centres unmarked) [LINALOOL]	–	198	–	logP [2]: 3.38
CC12CCC(CC1=O)C2(C)C (stereo not drawn) [KAMPFER DL]	204	–	–	–
O=C1CCCCCCCCCCCCCCO1 [OMEGA PENTADECALACTONE]	–	–	–	logP (list of selected fragrances): 5.35; Bp. [° C.] ([1]; list of selected fragrances): 341 °C
CCC(CC)COC(=O)CC1C=CCC1 (centres unmarked) [(2-CYCLOPENTEN-1-ACETIC ACID-2-ETHYLBUTYL ESTER]	–	–	–	Bp. [° C.] ([1]; list of selected fragrances): 252 °C
C/C=C/C(=O)C1=C(C)C=CCC1(C)C [DAMASCENON]	–	263	263	logP (Table 2, components of PEACH): 4.21; logP [2]: 4.21
CC(C)=CCCC(C)CCOC(=O)C(C)C (centres unmarked) [CITRONELLYLISOBUTYRAT]	–	–	267	logP (Table 2, components of PEACH): 5.47; logP (list of selected fragrances): 5.04; Bp. [° C.] ([1]; list of selected fragrances): 267 °C
CC(=O)/C=C/C1=C(C)CCCC1(C)C [BETA IONONE]	259	–	–	logP (list of selected fragrances): 3.77; Bp. [° C.] ([1]; list of selected fragrances): 259 °C
CCCCCC1C(=O)CCC1CC(=O)OC (centres unmarked) [HEDION]	–	296	296	–

Molecule	Bp. [° C.] ([1]; Table 1, components of MARINA) [°C]	Bp. [° C.] [1, 2] [°C]	Bp. [° C.] ([1]; Table 2, components of PEACH) [°C]	also measured
C=CCCC(=O)C(=C)C1CCCCC1 [PHARAONE 10% DPG]	–	0	–	–
CCC(C)(O)CCCC(C)C (centres unmarked) [TETRAHYDROLINALOOL]	197	197	–	–
C=CCOC(=O)COCCC(C)C [ALLYLAMYLGLYCOLAT]	–	226	–	–
CC(C)=CCCC(C)CCO (centres unmarked) [CITRONELLOL 950]	–	223	–	–
CC(O)COC(C)CO (centres unmarked) [DIPROPYLENGLYCOL]	231	231	231	–
CC(=O)c1oc2ccccc2c1C [NEROLIONE]	–	–	272	–
C=CC(C)(O)CCC=C(C)CC (mixture of isomers) [ETHYLLINALOOL]	224	–	–	–
CCCCCCC1OC(=O)CC1C (centres unmarked) [APRIFLOREN ®]	–	–	274	–
CCCCCC1C(=O)CCC1CC(=O)OC (centres unmarked) [METHYLDIHYDROJASMONATE]	–	–	–	Bp. [° C.] ([1]; list of selected fragrances): 296 °C
CCOC(=O)C(C)CC (centres unmarked) [ETHYLMETHYLBUTYRAT-2]	135	–	135	–
CO[C@]1(C)CC[C@@]23C[C@@H]1C(C)(C)[C@@H]2CC[C@H]3C [CEDRAMBER]	270	270	–	–
C=CCOC(=O)CCC1CCCCC1 [ALLYLCYCLOHEXYLPROPIONAT]	–	–	–	Bp. [° C.] ([1]; list of selected fragrances): 250 °C
CCC/C=C/CO [HEXENOL TRANS-2]	–	–	159	–
CCCCCC1CCC(=O)O1 (centres unmarked) [ALDEHYD C18 SOG.]	–	–	250	–
C=CCOC(=O)COC1CCCCC1 [CYCLOGALBANAT]	256	256	–	Bp. [° C.] ([1]; list of selected fragrances): 256 °C
CC/C=C\CCO [HEXENOL CIS-3]	157	–	157	–
CC(=O)OC1CC(C)CCC1C(C)C (centres unmarked) [MENTHYL ACETATE]	–	–	–	Bp. [° C.] ([1]; list of selected fragrances): 255 °C
C=CCc1ccc(O)c(OC)c1 [EUGENOL]	–	253.2	–	Bp. [° C.] ([1]; list of selected fragrances): 253.2 °C
C=CCOC(=O)COc1ccccc1 [ALLYLPHENOXYACETAT]	–	–	266	Bp. [° C.] ([1]; list of selected fragrances): 266 °C
CC(=O)OC(C)c1ccccc1 (centres unmarked) [STYROLYLACETAT]	214	–	214	–
CC1(C)[C@@H]2CC[C@@]1(C)[C@H](O)C2 (racemic) [ISOBORNEOL]	211	–	–	–
TERPINEOL REIN	219.16	–	219.16	–
CC1(C)CCC[C@]2(C)[C@H]3CCO[C@]3(C)CC[C@@H]12 [AMBROXIDE]	283	–	–	–
